From publication PMC9811466, “Structural Features Affecting the Interactions and Transportability of LAT1-Targeted Phenylalanine Drug Conjugates” (Molecular Pharmaceutics, 2022)
Several values for one entry are separate records, joined by “and”; a condition that tells them apart may be missing. Equal values may be shown once. Entries after “also recorded” stand apart in the source; their conditions may differ. Read-outs that look alike come from different tables or passages of the source.

Key:
[1] = Conversion of ester conjugate in 0.1 M NaOH (sample lysis); type: physicochemical
Experimental: For compound 9, the LLOQ was 0.05 nM with good linearity (R^2 > 0.983).[34] For the compounds 1, 7, and 12, the LLOQ was 12.5 nM, with a linear range of 12.5–2500 nM, and for 11, the LLOQ was 6.3 nM, over the range of 6.3–6250 nM.[28] For 10, the calibration curve was linear with a LLOQ of 1 ng/mL (accuracy ±15%), respectively.[26] For compounds 2–5, the LLOQ was 5.0 nM.[29] Methods were also selective, accurate (RSD < 15%), and precise (RSD < 15%) over the range of 5.0–1000 nM for 5 and for compounds 2–4 5.0–2000 nM. For compound 6, the LLOQ was 10 pmol/g.[33] Ketoprofen was linear with a range of 0.25–25 ng/mL, while compound 8 was completely converted to ketoprofen in 0.1 M NaOH within 30 min.

[2] = biological target: T1, LAT1 in MCF-7 human breast cancer cells (Homo sapiens, UniProt Q01650); assay: cis-inhibition of [14C]-L-leucine uptake in MCF-7 cells; type: cell-based; details: for inhibition at 50 µM: MCF7, MCF-7 cells
T1 construct: wild-type MCF-7 human breast cancer cell line; endogenous in cells; host or cells: MCF-7 human breast cancer cells (wild type)
T1 sequence (Q01650 whole entry): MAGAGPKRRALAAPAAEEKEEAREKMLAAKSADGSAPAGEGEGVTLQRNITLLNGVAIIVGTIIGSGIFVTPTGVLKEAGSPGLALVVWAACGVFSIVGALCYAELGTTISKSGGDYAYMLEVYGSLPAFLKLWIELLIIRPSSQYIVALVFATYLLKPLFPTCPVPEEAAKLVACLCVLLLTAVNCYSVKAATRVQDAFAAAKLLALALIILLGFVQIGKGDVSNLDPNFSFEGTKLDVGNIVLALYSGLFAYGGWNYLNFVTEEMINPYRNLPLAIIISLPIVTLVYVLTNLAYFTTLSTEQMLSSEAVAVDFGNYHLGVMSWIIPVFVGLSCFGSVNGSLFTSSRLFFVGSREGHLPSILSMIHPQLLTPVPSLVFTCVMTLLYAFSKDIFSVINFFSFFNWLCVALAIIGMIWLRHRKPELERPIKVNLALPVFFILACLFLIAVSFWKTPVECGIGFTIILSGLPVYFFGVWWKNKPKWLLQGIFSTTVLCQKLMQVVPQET
T1 sequence (P08195 102-630 partner): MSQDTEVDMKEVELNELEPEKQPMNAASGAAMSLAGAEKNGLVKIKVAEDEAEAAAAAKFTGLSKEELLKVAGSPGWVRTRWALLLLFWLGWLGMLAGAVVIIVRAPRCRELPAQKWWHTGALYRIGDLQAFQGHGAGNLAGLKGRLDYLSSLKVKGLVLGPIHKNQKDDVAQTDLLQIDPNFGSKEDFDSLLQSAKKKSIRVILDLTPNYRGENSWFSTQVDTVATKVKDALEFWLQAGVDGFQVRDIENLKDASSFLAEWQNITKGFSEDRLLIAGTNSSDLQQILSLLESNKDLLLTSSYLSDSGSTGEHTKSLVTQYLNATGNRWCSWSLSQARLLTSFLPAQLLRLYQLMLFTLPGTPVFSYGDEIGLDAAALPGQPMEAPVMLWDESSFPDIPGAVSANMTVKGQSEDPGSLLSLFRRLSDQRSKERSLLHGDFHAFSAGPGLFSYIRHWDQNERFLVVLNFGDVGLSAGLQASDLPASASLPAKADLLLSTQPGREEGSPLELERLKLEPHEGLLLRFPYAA
Experimental: Cells were cultured in DMEM (Gibco, ThermoFisher Scientific, Waltham, MA, USA) supplemented with L-glutamine (2 mM; ThermoFisher Scientific, Waltham, MA, USA), heat-inactivated fetal bovine serum (10%; Gibco, ThermoFisher Scientific, Waltham, MA, USA), penicillin (50 U/mL)-streptomycin (50 μg/mL) solution (ThermoFisher Scientific, Waltham, MA, USA), and hygromycin B solution (100 μg/mL) for transfected cells. HEK-hLAT1 and HEK-MOCK cells (passages 7–20) were seeded at a density of 5 × 10^5 cells/wells onto 24-well plates. The cells were used in the characterization, competition, and uptake studies 2 days after seeding. MCF-7 cells were seeded at a density of 1 × 10^5 and were used in the competition studies 1 day after seeding. The culture medium was removed, and the cells were washed with prewarmed Hanks’ balanced salt solution (HBSS; 125 mM NaCl, 4.8 mM KCl, 1.2 mM MgSO4, 1.2 mM KH2PO4, 1.3 mM CaCl2, 5.6 mM D-glucose, and 25 mM HEPES, pH 7.4). The cells were then incubated with HBSS at 37 °C for 10 min before the experiments.
(§1) In the following experiments, the MCF-7, HEK-hLAT1, and HEK-MOCK cells were cultured, seeded, and preincubated as described above. The HBSS was removed, and the ability of the compounds to inhibit the uptake of a known LAT1 substrate, [^14C]-L-leucine (PerkinElmer, Waltham, MA, USA), was studied by incubating the cells at RT for 10 min in uptake buffer pH 7.4 (250 μL) containing 0.76 μM (0.1 mCi/mL) of [^14C]-L-leucine and 0.025–1800 μM of the studied compound (or HBSS as blank). After incubation, the reaction was stopped with ice-cold HBSS, and the cells were washed two times with ice-cold HBSS. The cells were then lysed with 250 μL of 0.1 M sodium hydroxide, the lysate was mixed with 1.0 mL of Emulsifier safe cocktail (PerkinElmer, Waltham, MA, USA), and the radioactivity was measured with a liquid scintillation counter (MicroBeta^2 counter, PerkinElmer, Waltham, MA, USA). The inhibition of [^14C]-L-leucine in the presence of the studied compounds as compared to the control (HBSS) was calculated as percentages (%).

[3] = biological target: T2, hLAT1/4F2hc (Homo sapiens, UniProt Q01650); assay: cis-inhibition of [14C]-L-leucine uptake in HEK-hLAT1 cells; type: cell-based; details: for inhibition at 50 µM / [14C]-L-Leucine uptake inhibition % (50μM): 50 μM compound; for inhibition at 50 µM: read-out: [14C]-L-Leucine uptake inhibition % (50μM)
T2 construct: Invitrogen (host cells)
T2 sequence (Q01650 whole entry): as the sequence (Q01650 whole entry) above
T2 sequence (P08195 102-630 partner): as the sequence (P08195 102-630 partner) above
Experimental: as §1
Using the stably hLAT1/4F2hc expressing cell line, the compounds’ inhibitory efficiencies and uptake kinetics were determined via the cis-inhibition assay and uptake studies, respectively. (Table 1) Cis-inhibition is based on the competition between the ligand and LAT1 substrate [^14C]-L-leucine that results in inhibition of substrate uptake. The competitive uptake with L-leucine is reported as the IC50 value of L-leucine uptake and extent as inhibition percentage (%) at a given concentration.

[4] = tested on: HEK-MOCK cells; assay: Concentration-dependent cellular uptake into HEK-MOCK cells; type: cell-based, human; details: for Km: compounds 1-12; for Vmax: compounds 1-12, 2-400 μM, 10 min
Experimental: (§2) The concentrations for the compounds were in the range of 2–400 μM. Otherwise, the experiment was carried out as described above and analyzed by liquid chromatography coupled with an electrospray ionization (ESI) triple quadrupole mass spectrometer (LC–MS–MS). […]
(§3) The concentration-dependent uptake studies were performed by adding 2–400 μM of the tested compound in 250 μL of prewarmed HBSS buffer on the cell layer. […] After incubation, the cells were washed and lysed as described above. The lysate was collected from wells into an Eppendorf tube and centrifuged at 4 °C, the supernatant was collected, and the intracellular concentrations of studied compounds were analyzed by liquid chromatography coupled with an ESI triple quadrupole mass spectrometer (LC–MS–MS). The results were calculated from the standard curve that was prepared by spiking known amounts of each compound to the cell lysate and normalized to protein concentration. The protein concentrations on each plate were determined as a mean of three samples by Bio-Rad Protein Assay, based on the Bradford dye-binding method, using BSA as a standard protein and measuring the absorbance (595 nm) by a multiplate reader (EnVision, PerkinElmer, Inc., Waltham, MA, USA). All statistical analyses (Michaelis–Menten kinetic parameters) were performed using GraphPad Prism v. 5.03 software (GraphPad Software, San Diego, CA., USA). […]
(§4) After protein precipitation, the samples were centrifuged for 10 min with 10,000 g at 4 °C. The supernatant was then collected and transferred to vials for LC–MS/MS analysis. For BCH and gabapentin, cells were also lysed with 0.1 M NaOH, an aliquot was taken from the lysates, and perchloric acid (PCA) was added to precipitate the proteins. The samples were then centrifuged, and the supernatant was diluted 1:10 with H20 with 0.1% formic acid including the IS and transferred to vials for analysis.
(§5) The samples were analyzed with LC–MS/MS coupled with an Agilent 1200 series Rapid Resolution LC System (Agilent Technologies, Waldbronn, Germany) and an Agilent 6410 Triple Quadrupole with electrospray ionization (ESI) (Agilent Technologies, Palo Alto, CA, USA). […] The aqueous mobile phase was 0.1% formic acid in water (A), while the organic mobile phase was 0.1% formic acid in acetonitrile (B). […] For compound 4: 0–4 min 10% → 90% B, 4–6 min 90% B, 6–6.1 min 90% → 10%, 6.1–9 min 10%. For compound 5: 0–1 min 20% → 95% B, 1–4 min 95%, 4–4.1 min 95% → 20%, 4.1–7 min 20%. For compounds 6 and 9: 0–2 min 10% → 95%, 2–6 min 95%, 6–6.1 min 95% → 10%, 6.1–9 min 10%. For compound 8: 0–1 min 20% → 80%, 1–5.2 min 80%, 5.2–5.3 min 80% → 20%, 5.3–9 min 20%.

[5] = biological target: T2, hLAT1/4F2hc; assay: Concentration-dependent cellular uptake into HEK-hLAT1 cells (LC-MS/MS, Michaelis-Menten); type: cell-based; details: difference in uptake HEK-hLAT1 vs HEK-MOCK, with docking poses; 2-100 μM curves
[6] = biological target: T1, LAT1 in MCF-7 human breast cancer cells; details: MCF-7 cells; read-out: IC50 of [14C]-L-leucine uptake; cited from earlier work
[7] = tested on: MCF-7 cells; details: cited from earlier work
[8] = biological target: T2, hLAT1/4F2hc; assay: Concentration-dependent cellular uptake into HEK-hLAT1 cells (LC-MS/MS, Michaelis-Menten); type: cell-based; details: HEK-hLAT1 cells, compounds 1-12; for Vmax: 2-400 μM, 10 min
Experimental: as §2, §3, §4, §5

[9] = HEK-hLAT1 cells, compounds 1-12
[10] = HEK-hLAT1 cells, compounds 1-12, read-out: IC50 of [14C]-L-leucine uptake
[11] = HEK-hLAT1 cells, compounds 1-12, 50 µM

time to complete conversion to ketoprofen [1] [min]	inhibition at 50 µM ([2]; 50 μM compound) [%]	IC50 ([2]; MCF-7 cells) [µM]	inhibition at 50 µM [3, 9] [%]	IC50 [3, 10] [µM]	interaction class with LAT1 (interaction and transportability) [5]	[14C]-L-Leucine uptake inhibition % (50μM) ([2]; MCF-7 cells, 50 μM compound, 50 µM) [%]	Km ([8]; read-out: Km) [µM]	SMILES	Km [4] [µM]	Vmax [4]	[14C]-L-Leucine uptake inhibition % (50μM) [3, 11]	IC50 [6] [nM]	Km ([7]; MCF-7 cell line) [µM]	Vmax ([7]; MCF-7 cell line) [pmol/min/mg]	Vmax [8]	Vmax ([7]; MCF-7 cells, previous studies) [pmol/min/mg]	Km [8] [µM]	IC50 [3] [µM]	[14C]-L-Leucine uptake inhibition % (50μM) [3, 9]
≤ 30	83 ± 0.9	0.4 ± 0.08	24 ± 2.3	> 100	–	–	–	CC(C(=O)Oc1cccc(C[C@H](N)C(=O)O)c1)c1cccc(C(=O)c2ccccc2)c1 (stereo partly drawn) [Compound 8]	–	–	–	–	–	–	–	–	–	–	–
–	79.7 ± 7.87	–	–	> 100	low	–	–	COc1cc(/C=C/C(=O)Nc2cccc(C[C@H](N)C(=O)O)c2)ccc1O [Compound 9]	94 ± 45	149±41 pmol/min/mg of protein	not able to inhibit; also recorded: no inhibition	1100 ± 80	–	–	–	–	–	–	–
–	40	137 ± 1.6	10	> 100	low	45±1.7	–	CCCN(CCC)S(=O)(=O)c1ccc(C(=O)Nc2cccc(C[C@H](N)C(=O)O)c2)cc1 [Compound 10]	–	248±616 pmol/min/mg of protein	11±9.9%	–	15.2	111	–	–	–	–	–
–	93 ± 0.5	–	48 ± 1.8	11	medium interactions	–	19 ± 7.3	CC(C(=O)Nc1cccc(C[C@H](N)C(=O)O)c1)c1cccc(C(=O)c2ccccc2)c1 (stereo partly drawn) [Compound 5]	109 ± 69	63±24 pmol/min/mg of protein	–	500 ± 50	–	–	63±7.5 pmol/min/mg of protein	–	–	–	–

SMILES	time to complete conversion to ketoprofen [1] [min]	inhibition at 50 µM ([2]; 50 μM compound) [%]	IC50 ([2]; MCF-7 cells) [µM]	inhibition at 50 µM [3, 9] [%]	IC50 [3, 10] [µM]	interaction class with LAT1 (interaction and transportability) [5]	[14C]-L-Leucine uptake inhibition % (50μM) ([2]; MCF-7 cells, 50 μM compound, 50 µM) [%]	Km ([8]; read-out: Km) [µM]	Km [4] [µM]	Vmax [4]	[14C]-L-Leucine uptake inhibition % (50μM) [3, 11]	IC50 [6] [nM]	Km ([7]; MCF-7 cell line) [µM]	Vmax ([7]; MCF-7 cell line) [pmol/min/mg]	Vmax [8]	Vmax ([7]; MCF-7 cells, previous studies) [pmol/min/mg]	Km [8] [µM]	IC50 [3] [µM]	[14C]-L-Leucine uptake inhibition % (50μM) [3, 9]
N[C@@H](Cc1ccc(OC(=O)NCCc2ccc(O)c(O)c2)cc1)C(=O)O [Compound 2]	–	–	–	–	–	highest interactions	–	–	8.7 ± 12	19 pmol/min/mg of protein and 19±12 pmol/min/mg of protein	–	–	–	–	1521 pmol/min/mg of protein and 1521±364 pmol/min/mg of protein	< 3	103 ± 41	> 100	no inhibition
